BigSolDB 2.1

Cc1ccc[n+](CCCC[n+]2cccc(C)c2)c1.F[P-](F)(F)(F)(F)F.F[P-](F)(F)(F)(F)F
solubility (mole fraction)
Details	288.15 K	293.15 K	298.15 K	303.15 K	308.15 K	313.15 K	318.15 K	323.15 K	328.15 K	333.15 K
in 2-butanone	0.00289	0.00328	0.00379	0.00439	0.00496	0.00556	0.00623	0.00706	0.00771	0.00856
in acetophenone	–	–	0.000748	0.00103	0.00138	0.00183	0.0024	0.00311	0.00428	0.00556
in acetylacetone	0.00119	0.00157	0.00214	0.00282	0.00368	0.00462	0.00598	0.00807	0.0101	0.0136
in cyclohexanone	0.000205	0.000333	0.00051	0.000746	0.000967	0.00121	0.00146	0.00164	0.0018	0.00186
in water	2e-06	3e-06	5e-06	8e-06	1.4e-05	2.4e-05	3.9e-05	6.3e-05	9.8e-05	0.000157
